In test [1] the test system is Corn Earworm (Helicoverpa zea). The experiment in a line: Insecticidal diet-surface test for corn earworm. Format: in vivo. The note with it: second-instar corn earworm, 50 ug/cm2 on diet surface, 5 days after treatment, dead insects of 8. The protocol: (§1) The compounds identified in Table 1 were prepared using the procedures illustrated in the foregoing examples, and the compounds were tested against beet armyworm and corn earworm as follows:
(§2) Insecticidal Test for Corn Earworm (Helicoverpa zea) and Beet Armyworm (Spodoptera exigua).
(§3) To prepare test solution, the test compound was formulated at 2000 ppm solution as 4 mg/2 mL of 9 acetone:1 tap water. 50 μL of the 2000 ppm (equivalent to 50 ug/cm^2 dose on diet surface area) test solution was pipetted upon the surface of 1 mL of lepidopteran diet (Southland Multi-Species Lepidopteran Diet) contained in each of eight wells per insect species (one well=1 replication). A second-instar corn earworm and beet armyworm was placed upon the treated diet in each well once the solvent had air-dried. Trays containing the treated diet and larvae were covered and then held in a growth chamber at 25° C., 50-55% RH, and 16 hr light:8 hr dark for 5 days. Observation were conducted 5 days after treatment and infestation. The number of dead insects of 8 per species per treatment was then determined and the results are given in Table 1 as percent control at a dose of […].
(§4) Keys to the table: Mass spectral data were obtained using liquid chromatography mass spectroscopy (LC-MS). The masses are detected using electrospray ionization (ESI) and reported as Mol Ion (M+H, M−H); AVG LAPHEG 50 refers to activity against beet army worm (Spodoptera exigua) as defined above; AVG HELIZE 50 refers to activity against corn ear worm (Helicoverpa zea) as described above.

The subject of test [2] is Beet Armyworm (Spodoptera exigua). Kind of test: Insecticidal diet-surface test for beet armyworm. It counts as in vivo. The note with it: second-instar beet armyworm, 50 ug/cm2 on diet surface, 5 days after treatment, dead insects of 8. The protocol:
as §1, §2, §3, §4

Regarding `Fc1ccc(Nc2cc(Cl)nc(N/N=C/c3ccc(OC(F)(F)F)cc3)n2)cc1C(F)(F)F` [Compound 1, (6-Chloro-2-{N′-[1-(4-trifluoromethoxyphenyl)-methylidene]-hydrazino}-pyrimidin-4-yl)-(4-fluoro-3-trifluoromethylphenyl)amine], in test [1], the “HELIZE 50 (ug/cm2), percent control” value is reported as 100%. Further, the “LAPHEG 50 (ug/cm2), percent control” value in test [2] worked out at 100%.
Regarding `CN(c1ccc(OC(F)(F)F)cc1)c1cc(C(F)(F)F)nc(N/N=C/c2ccc(OC(F)(F)F)cc2)n1` [Compound 2, Methyl-(4-trifluoromethoxyphenyl)-(2-{N′-[1-(4-trifluoromethoxy-phenyl)-methylidene]-hydrazino}-6-trifluoromethylpyrimidin-4-yl)amine], the “HELIZE 50 (ug/cm2), percent control” value in test [1] worked out at 50%. Further, the “LAPHEG 50 (ug/cm2), percent control” value in test [2] came out at 0%.
Take `Fc1ccc(Nc2cc(N/N=C/c3ccc(OC(F)(F)F)cc3)nc(NCc3ccc(Cl)nc3)n2)cc1C(F)(F)F` [Compound 3, N-[2-(6-Chloropyridin-3-ylmethyl)]-N-[4-(4-fluoro-3-trifluoromethylphenyl)]-6-{N′-[1-(4-trifluoromethoxyphenyl)-methylidene]-hydrazino}pyrimidine-2,4-diamine]: in test [1], the “HELIZE 50 (ug/cm2), percent control” value is given as 100%. Further, the “LAPHEG 50 (ug/cm2), percent control” value in test [2] is given as 100%.
Turning to `Fc1ccc(Nc2ccnc(N/N=C/c3ccc(OC(F)(F)C(F)F)cc3)n2)cc1C(F)(F)F` [Compound 4], in test [1], the “HELIZE 50 (ug/cm2), percent control” value was found to be 100%. Besides, in test [2], the “LAPHEG 50 (ug/cm2), percent control” value is 100%.
With `FC(F)C(F)(F)Oc1ccc(/C=N/Nc2nc(Cl)cc(Nc3ccc(OC(F)(F)C(F)F)cc3)n2)cc1` [Compound 5], the “HELIZE 50 (ug/cm2), percent control” value in test [1] came to 88%. In addition, the “LAPHEG 50 (ug/cm2), percent control” value in test [2] was determined as 100%.
For `FC(F)C(F)(F)Oc1ccc(Nc2cc(Cl)nc(N/N=C/c3ccc(OC(F)(F)F)cc3)n2)cc1` [Compound 6], the “HELIZE 50 (ug/cm2), percent control” value in test [1] is given as 100%. In addition, the “LAPHEG 50 (ug/cm2), percent control” value in test [2] came out at 100%.
Regarding `FC(F)C(F)(F)Oc1ccc(Nc2cc(Cl)nc(N/N=C/c3cccc(OC(F)(F)C(F)F)c3)n2)cc1` [Compound 7], in test [1], the “HELIZE 50 (ug/cm2), percent control” value is reported as 25%. The “LAPHEG 50 (ug/cm2), percent control” value in test [2] is 88%.
In the same order, the values of `Fc1ccc(/C=N/Nc2nc(Cl)cc(Nc3ccc(OC(F)(F)C(F)F)cc3)n2)cc1C(F)(F)F` [Compound 8] are 100% and 100%.
In the same order, the values of `FC(F)C(F)(F)Oc1ccc(Nc2cc(Cl)nc(N/N=C/c3ccc4c(c3)OC(F)(F)O4)n2)cc1` [Compound 9] are 100% and 100%.
In the case of `FC(F)C(F)(F)Oc1ccc(Nc2cc(Cl)nc(N/N=C/c3ccc(Cl)cc3)n2)cc1` [Compound 10], the “HELIZE 50 (ug/cm2), percent control” value in test [1] came out at 88%. Besides, the “LAPHEG 50 (ug/cm2), percent control” value in test [2] is recorded as 63%.
Consider `Fc1ccc(Nc2cc(Cl)nc(N/N=C/c3ccc(Cl)cc3)n2)cc1C(F)(F)F` [Compound 11], for which, in test [1], the “HELIZE 50 (ug/cm2), percent control” value came to 100%. Also, in test [2], the “LAPHEG 50 (ug/cm2), percent control” value amounted to 100%.
As to `Fc1cnc(N/N=C/c2ccc(Br)cc2)nc1Nc1ccc(OC(F)(F)F)cc1` [Compound 12], the “HELIZE 50 (ug/cm2), percent control” value in test [1] is on record as 100%. In addition, the “LAPHEG 50 (ug/cm2), percent control” value in test [2] is 0%.
For the compound `Fc1cnc(N/N=C/c2ccc(OC(F)(F)F)cc2)nc1Nc1ccc(OC(F)(F)F)cc1` [Compound 13], the “HELIZE 50 (ug/cm2), percent control” value in test [1] is 100%. In test [2], the “LAPHEG 50 (ug/cm2), percent control” value turned out to be 0%.
In the same order, the values of `Fc1cnc(N/N=C/c2ccc(OC(F)(F)C(F)F)cc2)nc1Nc1ccc(OC(F)(F)F)cc1` [Compound 14] are 88% and 0%.
Consider `Fc1cnc(N/N=C/c2cccc(OC(F)(F)F)c2)nc1Nc1ccc(OC(F)(F)F)cc1` [Compound 15], for which the “HELIZE 50 (ug/cm2), percent control” value in test [1] is reported as 75%. Besides, the “LAPHEG 50 (ug/cm2), percent control” value in test [2] is 0%.
For `Fc1cnc(N/N=C/c2ccc(Cl)cc2)nc1Nc1ccc(OC(F)(F)F)cc1` [Compound 16], in that order: 100% and 100%.
On to `Fc1cc(Nc2ccc(F)c(C(F)(F)F)c2)nc(NN=Cc2ccc(OC(F)(F)F)cc2)n1` [Compound 17], for which, in test [1], the “HELIZE 50 (ug/cm2), percent control” value is on record as 100%. Further, the “LAPHEG 50 (ug/cm2), percent control” value in test [2] came out at 100%.
In the case of `Fc1cc(Nc2ccc(F)c(C(F)(F)F)c2)nc(NN=Cc2ccc(OC(F)(F)C(F)F)cc2)n1` [Compound 18], in test [1], the “HELIZE 50 (ug/cm2), percent control” value came out at 100%. In addition, in test [2], the “LAPHEG 50 (ug/cm2), percent control” value was 100%.
Regarding `Fc1cc(Nc2ccc(OC(F)(F)C(F)F)cc2)nc(NN=Cc2ccc(OC(F)(F)F)cc2)n1` [Compound 19], the “HELIZE 50 (ug/cm2), percent control” value in test [1] came out at 13%. Also, the “LAPHEG 50 (ug/cm2), percent control” value in test [2] was 50%.
In the same order, the values of `Fc1cc(Nc2ccc(OC(F)(F)C(F)F)cc2)nc(NN=Cc2ccc(OC(F)(F)C(F)F)cc2)n1` [Compound 20] are 25% and 50%.
In the same order, the values of `OC(c1ccc(Nc2cc(F)nc(NN=Cc3ccc(OC(F)(F)F)cc3)n2)cc1)(C(F)(F)F)C(F)(F)F` [Compound 21] are 100% and 100%.
With `OC(c1ccc(Nc2cc(F)nc(NN=Cc3ccc(OC(F)(F)C(F)F)cc3)n2)cc1)(C(F)(F)F)C(F)(F)F` [Compound 22], the “HELIZE 50 (ug/cm2), percent control” value in test [1] was determined as 100%. For the same compound, in test [2], the “LAPHEG 50 (ug/cm2), percent control” value was 100%.
For `COc1ccc(/C=N/Nc2nc(Cl)cc(Nc3ccc(F)c(C(F)(F)F)c3)n2)cc1` [Compound 23], the “HELIZE 50 (ug/cm2), percent control” value in test [1] was 38%. The “LAPHEG 50 (ug/cm2), percent control” value in test [2] was determined as 50%.
For `Fc1ccc(Nc2cc(Cl)nc(N/N=C/c3cccc(Cl)c3)n2)cc1C(F)(F)F` [Compound 24], in that order: 100% and 100%.
In the same order, the values of `Clc1ccc(/C=N/Nc2nc(Cl)cc(Nc3ccc(Cl)cc3)n2)cc1` [Compound 25] are 100% and 75%.
In the same order, the values of `FC(F)(F)Oc1ccc(/C=N/Nc2nc(Cl)cc(Nc3ccc(Cl)cc3)n2)cc1` [Compound 26] are 100% and 100%.
As to `Clc1ccc(Nc2cc(Cl)nc(N/N=C/c3ccc(N4CCCCC4)cc3)n2)cc1` [Compound 27], the “HELIZE 50 (ug/cm2), percent control” value in test [1] was determined as 100%. The “LAPHEG 50 (ug/cm2), percent control” value in test [2] is on record as 38%.
`Clc1ccc(Nc2cc(Cl)nc(N/N=C/c3cccc(Cl)c3)n2)cc1` [Compound 28]: the “HELIZE 50 (ug/cm2), percent control” value in test [1] was 50%. In addition, the “LAPHEG 50 (ug/cm2), percent control” value in test [2] is reported as 50%.
Consider `COc1ccc(/C=N/Nc2nc(Cl)cc(Nc3ccc(Cl)cc3)n2)cc1` [Compound 29], for which, in test [1], the “HELIZE 50 (ug/cm2), percent control” value came to 0%. Besides, in test [2], the “LAPHEG 50 (ug/cm2), percent control” value was 63%.
In the same order, the values of `Fc1ccc(Nc2cc(Cl)nc(N/N=C/c3cccc(OC(F)(F)C(F)F)c3)n2)cc1C(F)(F)F` [Compound 30] are 13% and 100%.
For the compound `FC(F)(F)c1ccc(/C=N/Nc2nc(Cl)cc(Nc3cccc(Cl)c3)n2)cc1` [Compound 31], the “HELIZE 50 (ug/cm2), percent control” value in test [1] was 100%. Further, in test [2], the “LAPHEG 50 (ug/cm2), percent control” value came to 100%.
Regarding `Clc1ccc(/C=N/Nc2nc(Cl)cc(Nc3cccc(Cl)c3)n2)cc1` [Compound 32], the “HELIZE 50 (ug/cm2), percent control” value in test [1] is listed as 88%. The “LAPHEG 50 (ug/cm2), percent control” value in test [2] came out at 0%.
In the same order, the values of `N#Cc1ccc(/C=N/Nc2nc(Cl)cc(Nc3cccc(Cl)c3)n2)cc1` [Compound 33] are 13% and 13%.
In the same order, the values of `Clc1cc(Nc2cccc(Br)c2)nc(N/N=C/c2ccccc2Cl)n1` [Compound 34] are 13% and 25%.
In the case of `Clc1cccc(/C=N/Nc2nc(Cl)cc(Nc3cccc(Br)c3)n2)c1` [Compound 35], the “HELIZE 50 (ug/cm2), percent control” value in test [1] is reported as 25%. Further, the “LAPHEG 50 (ug/cm2), percent control” value in test [2] amounted to 0%.
For `Clc1ccc(/C=N/Nc2nc(Cl)cc(Nc3cccc(Br)c3)n2)cc1` [Compound 36], in that order: 38% and 0%.
With `FC(F)(F)Oc1ccc(/C=N/Nc2nc(Cl)cc(Nc3cccc(Br)c3)n2)cc1` [Compound 37], the “HELIZE 50 (ug/cm2), percent control” value in test [1] is reported as 100%. Also, the “LAPHEG 50 (ug/cm2), percent control” value in test [2] is 100%.
For `Clc1cccc(/C=N/Nc2nc(Cl)cc(Nc3cccc(Cl)c3)n2)c1` [Compound 38], the “HELIZE 50 (ug/cm2), percent control” value in test [1] was found to be 0%. Moreover, the “LAPHEG 50 (ug/cm2), percent control” value in test [2] was 25%.
In the same order, the values of `FC(F)(F)Oc1ccc(/C=N/Nc2nc(Cl)cc(Nc3cccc(Cl)c3)n2)cc1` [Compound 39] are 100% and 100%.
For `FC(F)(F)c1ccc(/C=N/Nc2nc(Cl)cc(Nc3cccc(Br)c3)n2)cc1` [Compound 40], in that order: 100% and 100%.
